Measurements from US20150307938A1, “METHOD TO IDENTIFY A NOVEL CLASS OF IMMUNOLOGIC ADJUVANTS” (Lancell, L.L.C., priority 2011, published 2015).
Counter-ions that a name gives are not always drawn.

Assays:
[1] = test system: Murine Skin Dendritic Cells; assay: Activation of murine skin dendritic cells by DBP vs. DBlT (DC per lymph node, CD86); assay type: in vivo; conditions: topical treatment
Fluzone = test system: Fluzone; parameters: species or system C57BL/6 mice; conditions: mouse, in vivo
skin = assay: Affymetrix microarray of skin, DBP-4 hr and analogs vs. untreated; gene selection by log-2 fold change, Wilcoxon, Kendall tau (Tables 8, 9); assay type: in vivo, mouse

CCCCOC(=O)[C@H](O)[C@@H](O)C(=O)OCCCC [DBlT, dibutyl L tartrate]
MFI CD86 [1]: 634 (126) | HAI titer / adjuvant effect with the same dose of Fluzone (Fluzone): almost but not quite as good as DBT had

CCOC(=O)c1ccccc1C(=O)OCC [DEP, diethylphthalate]
Log2 Expression Level (skin; gene #1 of Table 8): 5.52 | Log2 Expression Level (skin; gene #2 of Table 8): 7.18 | Log2 Expression Level (skin; gene #3 of Table 8): 8.98 | Log2 Expression Level (skin; gene #4 of Table 8): 8.98 | Log2 Expression Level (skin; gene #5 of Table 8): 6.10 | Log2 Expression Level (skin; gene #6 of Table 8): 7.14 | Log2 Expression Level (skin; gene #7 of Table 8): 6.55 | Log2 Expression Level (skin; gene #8 of Table 8): 7.14 | Log2 Expression Level (skin; gene #9 of Table 8): 7.14 | Log2 Expression Level (skin; gene #10 of Table 8): 7.14 | Log2 Expression Level (skin; gene #11 of Table 8): 6.55 | Log2 Expression Level (skin; gene #12 of Table 8): 6.55 | Log2 Expression Level (skin; gene #13 of Table 8): 6.55 | Log2 Expression Level (skin; gene #14 of Table 8): 4.71 | Log2 Expression Level (skin; gene #15 of Table 8): 4.71 | Log2 Expression Level (skin; gene #16 of Table 8): 7.54 | Log2 Expression Level (skin; gene #17 of Table 8): 9.32 | Log2 Expression Level (skin; gene #18 of Table 8): 9.32 | Log2 Expression Level (skin; gene #19 of Table 8): 8.41 | Log2 Expression Level (skin; gene #20 of Table 8): 8.85 | Log2 Expression Level (skin; gene #21 of Table 8): 8.77 | Log2 Expression Level (skin; gene #22 of Table 8): 5.30 | Log2 Expression Level (skin; gene #23 of Table 8): 6.03 | Log2 Expression Level (skin; gene #24 of Table 8): 7.92 | Log2 Expression Level (skin; gene #25 of Table 8): 7.92 | Log2 Expression Level (skin; gene #26 of Table 8): 7.51 | Log2 Expression Level (skin; gene #27 of Table 8): 7.51 | Log2 Expression Level (skin; gene #28 of Table 8): 7.51 | Log2 Expression Level (skin; gene #29 of Table 8): 5.79 | Log2 Expression Level (skin; gene #30 of Table 8): 8.76 | Log2 Expression Level (skin; gene #31 of Table 8): 8.76 | Log2 Expression Level (skin; gene #32 of Table 8): 8.76 | Log2 Expression Level (skin; gene #33 of Table 8): 5.34 | Log2 Expression Level (skin; gene #34 of Table 8): 6.85 | Log2 Expression Level (skin; gene #35 of Table 8): 6.85 | Log2 Expression Level (skin; gene #36 of Table 8): 8.98 | Log2 Expression Level (skin; gene #37 of Table 8): 8.98 | Log2 Expression Level (skin; gene #38 of Table 8): 8.98 | Log2 Expression Level (skin; gene #39 of Table 8): 7.28 | Log2 Expression Level (skin; gene #40 of Table 8): 7.39 | Log2 Expression Level (skin; gene #41 of Table 8): 7.54 | Log2 Expression Level (skin; gene #42 of Table 8): 7.18 | Log2 Expression Level (skin; gene #43 of Table 8): 7.18 | Log2 Expression Level (skin; gene #44 of Table 8): 7.54 | Log2 Expression Level (skin; gene #45 of Table 8): 7.18 | Log2 Expression Level (skin; gene #46 of Table 8): 7.54 | Log2 Expression Level (skin; gene #47 of Table 8): 8.45 | Log2 Expression Level (skin; gene #48 of Table 8): 8.45 | Log2 Expression Level (skin; gene #49 of Table 8): 8.45 | Log2 Expression Level (skin; gene #50 of Table 8): 9.67 | Log2 Expression Level (skin; gene #51 of Table 8): 7.95 | Log2 Expression Level (skin; gene #52 of Table 8): 9.60 | Log2 Expression Level (skin; gene #53 of Table 8): 8.70 | Log2 Expression Level (skin; gene #54 of Table 8): 10.81 | Log2 Expression Level (skin; gene #55 of Table 8): 6.30 | Log2 Expression Level (skin; gene #56 of Table 8): 9.40 | Log2 Expression Level (skin; gene #57 of Table 8): 8.76 | Log2 Expression Level (skin; gene #58 of Table 8): 8.74 | Log2 Expression Level (skin; gene #59 of Table 8): 7.93 | Log2 Expression Level (skin; gene #60 of Table 8): 7.26 | Log2 Expression Level (skin; gene #61 of Table 8): 12.58 | Log2 Expression Level (skin; gene #62 of Table 8): 7.63 | Log2 Expression Level (skin; gene #63 of Table 8): 10.52 | Log2 Expression Level (skin; gene #64 of Table 8): 11.04 | Log2 Expression Level (skin; gene #65 of Table 8): 6.97 | Log2 Expression Level (skin; gene #66 of Table 8): 7.90 | Log2 Expression Level (skin; gene #67 of Table 8): 4.52 | Log2 Expression Level (skin; gene #68 of Table 8): 8.29 | Log2 Expression Level (skin; gene #69 of Table 8): 5.13 | Log2 Expression Level (skin; gene #70 of Table 8): 4.38 | Log2 Expression Level (skin; gene #71 of Table 8): 7.95 | Log2 Expression Level (skin; gene #72 of Table 8): 7.61 | Log2 Expression Level (skin; gene #73 of Table 8): 6.09 | Log2 Expression Level (skin; gene #74 of Table 8): 7.13 | Log2 Expression Level (skin; gene #75 of Table 8): 8.41 | Log2 Expression Level (skin; gene #76 of Table 8): 4.13 | Log2 Expression Level (skin; gene #77 of Table 8): 9.75 | Log2 Expression Level (skin; gene #78 of Table 8): 10.71 | Log2 Expression Level (skin; gene #79 of Table 8): 6.51 | Log2 Expression Level (skin; gene #80 of Table 8): 12.79 | Log2 Expression Level (skin; gene #81 of Table 8): 5.69 | Log2 Expression Level (skin; gene #82 of Table 8): 4.90 | Log2 Expression Level (skin; gene #83 of Table 8): 7.87 | Log2 Expression Level (skin; gene #84 of Table 8): 7.51 | Log2 Expression Level (skin; gene #85 of Table 8): 4.61 | Log2 Expression Level (skin; gene #86 of Table 8): 6.60 | Log2 Expression Level (skin; gene #87 of Table 8): 7.01 | Log2 Expression Level (skin; gene #88 of Table 8): 5.04 | Log2 Expression Level (skin; gene #89 of Table 8): 5.15 | Log2 Expression Level (skin; gene #90 of Table 8): 10.08 | Log2 Expression Level (skin; gene #91 of Table 8): 6.27 | Log2 Expression Level (skin; gene #92 of Table 8): 7.41 | Log2 Expression Level (skin; gene #93 of Table 8): 8.87 | Log2 Expression Level (skin; gene #94 of Table 8): 7.83 | Log2 Expression Level (skin; gene #95 of Table 8): 5.79 | Log2 Expression Level (skin; gene #96 of Table 8): 6.84 | Log2 Expression Level (skin; gene #97 of Table 8): 5.27 | Log2 Expression Level (skin; gene #98 of Table 8): 5.94 | Log2 Expression Level (skin; gene #99 of Table 8): 9.42 | Log2 Expression Level (skin; gene #100 of Table 8): 7.53
